The text below walks through data of publication PMC3984052 (Bioorganic & medicinal chemistry, 2014).

For data set [1] the following is noted: in vivo; for Tolerability after repeated dosing: mouse.
Data set [2] deals with PrP^C on the cell surface of human T98G glioblastoma cells. It counts as cell-based. The note with it: EC50 ratio.

Turning to `COc1ccc(Cl)cc1C(=O)N1CCN(c2cccc(Cl)c2)CC1` [IND30802], the “Brain concentration relative to the EC50 value determined by ELISA” value in data set [1] (female, CD-1, mouse) came to 100 ×. Besides, the “Tolerability after repeated dosing” value in data set [1] is recorded as “well tolerated”.

`NC(=O)c1ccccc1NC(=O)c1cccnc1N1CCCCC1` [IND87406]: in data set [1], the “Tolerability after repeated dosing” value is “well tolerated”.

In the case of `O=C(Cc1ccc(-c2ccccc2)cc1)NCc1ccccc1` [IND116065], the “Potency relative to the bromo analog (IND61769)” value in data set [2] was 5 fold.
